Measurements from US8143254B2, “Methods for modulating ion channels” (Cornell Research Foundation, Inc., priority 2005, dated 2012).

Molecular target: T1, Kv3.4 (UniProt Q63734)
T1 construct: IC50; other: Kv3.4, logistic dose response fit; effect on Kv3.4 currents; other: 1 mM, bath applied; slope of dose response curve; other: Kv3.4
T1 sequence (Q63734 1-625): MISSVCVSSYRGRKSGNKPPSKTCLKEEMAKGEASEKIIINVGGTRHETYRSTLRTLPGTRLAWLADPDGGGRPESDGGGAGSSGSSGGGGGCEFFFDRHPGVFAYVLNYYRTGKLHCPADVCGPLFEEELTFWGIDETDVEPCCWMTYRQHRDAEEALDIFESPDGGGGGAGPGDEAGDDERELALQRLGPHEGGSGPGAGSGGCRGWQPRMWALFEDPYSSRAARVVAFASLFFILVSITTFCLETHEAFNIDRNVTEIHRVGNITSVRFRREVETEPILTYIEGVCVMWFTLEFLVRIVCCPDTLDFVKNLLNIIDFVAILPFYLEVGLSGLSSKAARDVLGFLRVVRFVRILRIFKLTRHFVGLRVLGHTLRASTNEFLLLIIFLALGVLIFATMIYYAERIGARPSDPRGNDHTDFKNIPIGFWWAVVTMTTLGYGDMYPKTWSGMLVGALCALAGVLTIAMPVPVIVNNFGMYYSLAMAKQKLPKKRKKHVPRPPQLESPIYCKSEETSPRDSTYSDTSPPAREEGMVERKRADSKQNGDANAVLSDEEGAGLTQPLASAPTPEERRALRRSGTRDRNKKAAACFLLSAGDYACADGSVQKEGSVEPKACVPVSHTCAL
Assay: TEVC of X. laevis oocytes expressing Kv3.4
Assay type: cell-based
Conditions: for effect on Kv3.4 currents: 1 mM, bath applied; for slope of dose response curve: Kv3.4; for IC50: Kv3.4, logistic dose response fit
From the text: Kv2.1 mutants were constructed using the QuickChange Multi Site-Directed Mutagenesis Kit (Stratagene, La Jolla, Calif.). […] For oocyte expression, Kv3.4 was in pBF1, Kv4.2 was in pRAT. cRNA transcripts were produced from SacII-linearized (Kv2.1), Mlullinearized (Kv3.4) and Not1-linearized (Kv4.2) DNA templates using the T3 (Kv2.1), SP6 (Kv3.4) and T7 (Kv4.2) mMessage mMachine kits (Ambion, Austin, Tex.). cRNA was quantified by spectrophotometry and its size integrity verified by gel electophoresis. Defolliculated stage V and VI Xenopus laevis oocytes (purchased from Nasco, Grand Island, N.Y.) were injected with 5 ng of cRNA encoding Kv2.1, Kv3.4 or Kv4.2. Chinese Hamster Ovary (CHO) cells were transfected with 0.25 μg Kv2.1 cDNA, 2 μg blank plasmid and 2 μg Green fluorescent Protein in pBOB using Supetfect transfection reagent (Qiagen) 24 hours before whole-cell voltage clamp studies.
Oocytes were bathed in a small-volume Warner oocyte bath and viewed with a Fisher dissection microscope. Bath solution for whole-cell oocyte recordings was (in mM): 96 NaCl, 4 KCl, 0.7 MgCl2, 1 CaCl2, 10 HEPES (pH 7.4); whole-cell oocyte TEVC pipettes were of 0.2-2 M resistance when filled with 3 M KCl. Experiments were performed 24-48 hours after cRNA injection. For assessment of current-voltage relationships in the absence or presence of dabco derivatives, oocytes were held at −80 mV, stepped for 2 seconds at voltages between −80 mV and +60 mV in 20 mV steps (Kv2.1) or between −80 and +50 mV in 10 mV steps (Kv3.4), then held for 500 ms at −40 mV before returning to the holding potential. For assessment of block during wash-in of dabco derivatives at a single voltage, oocytes were held at −80 mV, and repetitively stepped to 0 mV for 2 s with an interpulse interval of 10 s or 60 s as indicated. A range of concentrations of dabco or dabco derivatives were washed in via the bath solution during repetitive single-voltage pulses (after an initial period of 5 pulses with control solution to ensure current stabilization) until equilibrium block was achieved, to establish dose-responses. […] Washout was performed after the highest concentration of blocker was washed in. In cases where washout was achieved, only those recordings in which current returned to within 10% of original current level were used for construction of dose-response curves. […] As controls for this protection analysis, JC638.2a or MTSET were washed in alone until equilibrium block, then washed out.
Data analysis: Current-voltage relationships were obtained by measuring peak current during depolarizing pulses. Inhibition constants for DABCO blockers were calculated after generating a dose response curve by fitting with a logistic dose-response function y=A2+[A1−A2/1+(x/x0)^p], where A1 is the maximum response plateau, A2 is the minimum response plateau, x is drug concentrator, x0 is the IC50, and p the Hill slope. Data analysis was performed using […] 9 (Axon Instruments, Foster City, Calif.) and tabulated in Excel 5.0. Graphs were generated using Origin 6.1. Data are expressed as mean±SEM, with n specifying the number of independent experiments. Statistical significance was assessed by one-way ANOVA with p<0.05 being indicative of significance.

c1cc(C[N+]23CCN(CC2)CC3)ccc1C[N+]12CCN(CC1)CC2 [JC638.2α, α,α′-[bis(4-aza-1-azoniabicyclo[2.2.2]octanyl)]p-xylene] was tested, and the “effect on Kv3.4 currents” value was “significant inhibition”, the “slope of dose response curve” value was 1.3±0.2 and the IC50 was 129 ± 20.7 µM.
In the case of CCCCCCCCCCCC[N+]12CCN(CC1)CC2 [JE188, 1-aza-4-azonia-4-dodecylbicyclo[2.2.2]octane], the “slope of dose response curve” value is reported as 0.7±0.1 and the IC50 is reported as 34.2 ± 10 µM.
With CCCCCCCCCCCCCCCC[N+]12CCN(CC1)CC2 [TA279, 1-aza-4-azonia-4-hexadecylbicyclo[2.2.2]octane] the “slope of dose response curve” value was 2.8±1.1 and the IC50 was 0.6 ± 0.1 µM.
In the case of C(CC[N+]12CCN(CC1)CC2)C[N+]12CCN(CC1)CC2 [TG26], the “effect on Kv3.4 currents” value is reported as “less effective than TG27”.
